PubChem BioAssay (NCI)
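Interpolation was linear, between the two tested concentrations surrounding the appropriate level; five concentrations were tested over 48 hours in 96-well plates. Definition used: TGI = concentration required for complete inhibition of growth.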

What was measured:
Test in all cases: NCI-60 cell line screen, 48 h
M14 melanoma = system: M14 melanoma
DU-145 prostate = system: DU-145 prostate
MOLT-4 leukemia = system: MOLT-4 leukemia
BT-549 breast = system: BT-549 breast
HCT-15 colon = system: HCT-15 colon
SN12C renal = system: SN12C renal
SNB-19 CNS = system: SNB-19 CNS
SK-MEL-28 melanoma = system: SK-MEL-28 melanoma
COLO 205 colon = system: COLO 205 colon
SW-620 colon = system: SW-620 colon
SK-MEL-5 melanoma = system: SK-MEL-5 melanoma

SMILES | TGI (M14 melanoma) | TGI (DU-145 prostate) | TGI (MOLT-4 leukemia) | TGI (BT-549 breast) | TGI (HCT-15 colon) | TGI (SN12C renal) | TGI (SNB-19 CNS) | TGI (SK-MEL-28 melanoma) | TGI (COLO 205 colon) | TGI (SW-620 colon) | TGI (SK-MEL-5 melanoma)
CC1CN=C(NCc2ccccc2)S1 (stereo not given) | > 100 µM | > 100 µM | > 100 µM | > 100 µM | > 100 µM | > 100 µM | > 100 µM | > 100 µM |  |  | 
CCOC(=O)[C@H]1C[C@@H](C(=O)c2ccccc2)N2N=C(c3ccc(Br)cc3)C=C[C@H]12 | > 100 µM | > 100 µM | > 100 µM | > 100 µM | > 100 µM | > 100 µM | > 100 µM | > 100 µM | > 100 µM | > 100 µM | 
C1=CCN(c2ccccc2)CC1 | 44.8 µM |  | > 100 µM |  | 47.1 µM | 87 µM | > 100 µM | 73.9 µM | > 100 µM | 47.3 µM | > 100 µM
Cc1nc2ccccc2nc1NS(=O)(=O)c1ccc(N)cc1 | > 100 µM |  | > 100 µM |  | > 100 µM | > 100 µM | > 100 µM | > 100 µM | > 100 µM | > 100 µM | > 100 µM
O=C(CCN(CCO)CCO)Nc1ccc2c(c1)C(=O)c1ccc(NC(=O)CCN(CCO)CCO)cc1C2=O | 38.3 µM |  | 44.9 µM |  | 19.8 µM | > 100 µM | 86.3 µM | 62.6 µM | 29.5 µM | 33.4 µM | 40.7 µM
Cc1ccc(-c2c(C#N)c(-c3ccc(N(C)C)cc3)c(C#N)c(=O)n2NS(=O)(=O)c2ccccc2)cc1 | > 100 µM |  | 52.8 µM | > 100 µM | > 100 µM | > 100 µM | > 100 µM | > 100 µM | > 100 µM | > 100 µM | 36.8 µM
COc1ccc(NS(=O)CCc2ccccc2)cc1 (stereo not given) | > 100 µM | > 100 µM | > 100 µM |  | > 100 µM | > 100 µM | > 100 µM | > 100 µM | > 100 µM | > 100 µM | > 100 µM
CCOc1ccc(NCC(=O)N2CC(=O)Nc3ccccc32)cc1 | > 100 µM |  | > 100 µM |  | > 100 µM | > 100 µM | > 100 µM | > 100 µM | > 100 µM | > 100 µM | > 100 µM
CCCCOC(=O)/C(CC(=O)C=C(C)C)=N\NS(=O)(=O)c1ccc(C)cc1 | > 100 µM |  | > 100 µM |  | > 100 µM | > 100 µM | > 100 µM | > 100 µM | > 100 µM |  | > 100 µM
CCN(CC)CCCCC1CCN(CC(=O)N2c3ccccc3NC(=O)c3ccccc32)CC1 | 39.7 µM |  | > 100 µM |  |  | > 100 µM | > 100 µM | > 100 µM | > 100 µM | > 100 µM | > 100 µM
CC(=O)Nc1ccc(-c2nnc(SCC(=O)Nc3ccccc3Cl)o2)cc1 | > 100 µM |  | > 100 µM |  | > 100 µM | > 100 µM | > 100 µM | > 100 µM | > 100 µM | > 100 µM | > 100 µM
O=c1c2cc(I)ccc2nc(-c2cccs2)n1Nc1ccccc1 | > 100 µM |  | > 100 µM | > 100 µM | > 100 µM | > 100 µM | 76.6 µM | > 100 µM | 3.66 µM | > 100 µM | > 100 µM
C1CSCC2(COC2)CS1 |  | > 100 µM | > 100 µM |  |  | > 100 µM | > 100 µM | > 100 µM | > 100 µM | > 100 µM | > 100 µM
CC(=O)c1c2c(cc3c1CC1(Cc4cc5c(cc4C1)CCC5)C3)CCC2 | > 100 µM | > 100 µM | > 100 µM |  | > 100 µM |  | > 100 µM | > 100 µM |  | > 100 µM | > 100 µM
CC(C#N)Nc1ccc(Oc2ccc(C(C)(C)c3ccc(Oc4ccc(NC(C)C#N)cc4)cc3)cc2)cc1 (stereo not given) | > 100 µM |  | > 100 µM | > 100 µM | > 100 µM | > 100 µM | > 100 µM | > 100 µM | > 100 µM | > 100 µM | > 100 µM
COc1ccc(/C=C2/C(=O)N(C(=O)c3ccc(Cl)cc3)N=C2C)cc1OC | > 100 µM |  |  |  | > 100 µM | > 100 µM | > 100 µM | > 100 µM | > 100 µM | > 100 µM | > 100 µM
CC(=NNC(=S)Nc1ccccc1C)c1cccc(C(C)=NNC(=S)Nc2ccccc2C)n1 | > 100 µM | > 100 µM | > 100 µM |  | > 100 µM | > 100 µM | > 100 µM | > 100 µM | > 100 µM | > 100 µM | > 100 µM

SMILES | TGI (M14 melanoma) | TGI (DU-145 prostate) | TGI (MOLT-4 leukemia) | TGI (BT-549 breast) | TGI (HCT-15 colon) | TGI (SN12C renal) | TGI (SNB-19 CNS) | TGI (SK-MEL-28 melanoma) | TGI (COLO 205 colon) | TGI (SW-620 colon) | TGI (SK-MEL-5 melanoma)
O=C(O)Cc1cc(=O)oc2cc(O)c(Cl)cc12 | > 100 µM |  | > 100 µM |  | > 100 µM | > 100 µM | > 100 µM | > 100 µM | > 100 µM | > 100 µM | > 100 µM
COc1ccc2c(OC)c3ccoc3nc2c1O | > 100 µM |  | > 100 µM |  | > 100 µM | > 100 µM | > 100 µM | > 100 µM | > 100 µM | > 100 µM | > 100 µM
O=C1C(NCCc2cc(Br)c(O)c(Br)c2)=CC(=O)c2ncccc21 | 8.36 µM | 12 µM | 24.1 µM |  | 31.9 µM | 14.7 µM | 27.5 µM | 10 µM | 19.2 µM | > 57.7 µM | 2.83 µM
O=C(Nc1ccc(C(F)(F)F)cc1[N+](=O)[O-])C(=O)C(C(=O)c1ccc2ccccc2c1)C1OC(=O)c2ccccc21 (stereo not given) | 28.1 µM |  | 10.6 µM |  | 51.4 µM | 33.5 µM | 22.5 µM | 18 µM | 32.7 µM | 21.9 µM | 18.8 µM
COc1ccc(CCN2CCC(C#N)(c3ccc(OC)c(OC)c3)CC2)cc1OC | > 100 µM |  | > 100 µM |  | > 100 µM | > 100 µM | > 100 µM | > 100 µM | > 100 µM | > 100 µM | > 100 µM
O=C1/C(=C/c2cccc([N+](=O)[O-])c2)COc2ccccc21 | 3.38 µM |  | 6.62 µM |  | 3.11 µM |  | 9.07 µM | 7.42 µM | > 100 µM | 2.09 µM | 4.99 µM
COc1ccc2c(c1)c(Cc1c(C)n(C)c3ccc(OC)cc13)c(C)n2C | > 100 µM |  | > 100 µM |  | > 100 µM | > 100 µM | > 100 µM | > 100 µM | > 100 µM | > 100 µM | > 100 µM
Nc1ccc(N=Nc2ccc(/C=C/c3ccc(N=Nc4ccc(N)c5ccc(S(=O)(=O)O)cc45)cc3S(=O)(=O)O)c(S(=O)(=O)O)c2)c2cc(S(=O)(=O)O)ccc12 |  |  | > 100 µM |  | > 100 µM | > 100 µM | > 100 µM | > 100 µM | > 100 µM | > 100 µM | > 100 µM
c1ccc(C2=NN(c3ccccc3)C3(S2)SC(c2ccccc2)(c2ccccc2)c2ccccc23)cc1 (stereo not given) | > 100 µM |  | > 100 µM |  | > 100 µM | > 100 µM | > 100 µM | > 100 µM | > 100 µM | > 100 µM | > 100 µM
N#Cc1c(-c2ccccc2)c(C#N)c(=O)n(NS(=O)(=O)c2ccccc2)c1O | > 100 µM |  | > 100 µM | > 100 µM | > 100 µM | > 100 µM | > 100 µM | > 100 µM | > 100 µM | > 100 µM | > 100 µM
Cc1ccc(S(=O)(=O)N/N=C2\C(=O)C3CC2C(Cl)C3Cl)cc1 (stereo not given) | > 100 µM |  | > 100 µM |  | > 100 µM | > 100 µM | > 100 µM | > 100 µM | > 100 µM | > 100 µM | > 100 µM
CN(C(=O)C1=CCCCCC1)c1ccccc1I | > 100 µM | > 100 µM | > 100 µM |  | > 100 µM | > 100 µM | > 100 µM | > 100 µM | 37.6 µM | > 100 µM | > 100 µM
N#CCCc1nc2ccc(Br)cc2c(=O)n1-c1ccc(O)c([N+](=O)[O-])c1 | 44.7 µM |  | 54.3 µM |  | 38.3 µM | 38.6 µM |  | 34.8 µM | 47.9 µM | 46.8 µM | 36.3 µM
O=S(=O)(CC1=NC2C=CC=CC2N=C1)NCc1ccccc1 (stereo not given) | > 100 µM |  | > 100 µM |  | > 100 µM | > 100 µM | > 100 µM | > 100 µM | > 100 µM | > 100 µM | > 100 µM
Oc1cn(-c2ccc(Cl)cc2)nc1-c1nnc(Nc2ccccc2)o1 | 37.5 µM | 42.1 µM |  |  | 28 µM | 32.2 µM | 50.5 µM | 34.9 µM | 51 µM | 41 µM | 23.6 µM
C/C(C=O)=C1\C(O)C[C@]1(C)C1CC(C)(C)CC1O (stereo not given in full) | > 100 µM |  | > 100 µM |  |  | > 100 µM | > 100 µM | > 100 µM | > 100 µM | > 100 µM | > 100 µM
CSC1=N/C(=C\c2cccs2)C(=O)N1CN1CCCCC1 | > 100 µM | > 100 µM | > 100 µM |  | > 100 µM | > 100 µM |  | > 100 µM | > 100 µM | > 100 µM | > 100 µM
